According to patent publication US10611750B2, “Tetrahydroquinoline compositions as bet bromodomain inhibitors” (FORMA Therapeutics, Inc., priority 2013, dated 2020):
Values joined by “and” are separate entries in the source; they are usually repeats but may differ in a detail not shown here. Equal values may be shown once.

What was measured:
[1] = biological target: T1, BRD4 Bromodomain 1 (BRD4 BD1) (Homo sapiens, UniProt O60885); experiment: AlphaScreen binding assay, BRD4 BD1; details: His-tagged BRD4 BD1 50 nM, biotinylated H4 (1-21) K5/8/12/16 tetra-acetylated peptide 50 nM, compounds listed under IC50 range headings
T1 construct: 44-168 and BRD4 BD2
Procedure, shortened: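 Compound dilution series were mixed with His-tagged BRD4 bromodomain and biotinylated tetra-acetylated H4 (1-21) peptide at pH 7.3 (BD1 and peptide at 50 nM, BD2 and peptide at 100 nM). Donor and acceptor beads were then added, and plates were equilibrated at least 1 h before reading. IC50 values were fitted with a four-parameter logistic model.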

[2] = test system: acute myelocytic leukemia (AML) cell line MV4-11; experiment: Oncology cell growth assay (3-day proliferation, CellTiter-Glo); type: cell-based; details: Homo sapiens, MV4-11, 72 h, MV4-11 cells, 3000 cells/well, compounds listed under IC50 range headings, read-out: MV411 IC50 (gIC50, inhibition of proliferation)
Procedure, shortened: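 Compounds were serially diluted 3-fold in DMSO, giving final well concentrations from 10 down to 0.0045 μM. MV4-11 cells were then seeded at 3000 cells/well in RPMI 1640 with 10% FBS and incubated 72 hours. CellTiter-Glo signal was measured and gIC50 obtained by four-parameter logistic regression.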

SMILES | IC50 [1] | IC50 [2]
COC(=O)N1c2ccc(-c3cn(C)c(N4CCNCC4)n3)c(OC3CCC3)c2CC[C@@H]1C [I-315, (S)-methyl 5-cyclobutoxy-2-methyl-6-(1-methyl-2-(piperazin-1-yl)-1H-imidazol-4-yl)-3,4-dihydroquinoline-1(2H)-carboxylate] | 0.1 to 1 µM | < 0.5 µM
COC(=O)N1c2ccc(-c3csc(N4CCNCC4)n3)c(OC3CCC3)c2CC[C@@H]1C [I-316, (S)-methyl 5-cyclobutoxy-2-methyl-6-(2-(piperazin-1-yl)thiazol-4-yl)-3,4-dihydroquinoline-1(2H)-carboxylate] | 0.1 to 1 µM | < 0.5 µM
COC(=O)N1c2ccc(-c3csc(N4CC(O)C4)n3)c(OC3CCC3)c2CC[C@@H]1C [I-317, (S)-methyl 5-cyclobutoxy-6-(2-(3-hydroxyazetidin-1-yl)thiazol-4-yl)-2-methyl-3,4-dihydroquinoline-1(2H)-carboxylate] | 0.1 to 1 µM | 0.5 to 1 µM
C[C@H]1CCc2c(ccc(-c3cn(C)nn3)c2Oc2cc(F)ccc2F)N1C(=O)C1CC1 [I-318, (S)-cyclopropyl(5-(2,5-difluorophenoxy)-2-methyl-6-(1-methyl-1H-1,2,3-triazol-4-yl)-3,4-dihydroquinolin-1(2H)-yl)methanone] | 0.1 to 1 µM | < 0.5 µM
C[C@H]1CCc2c(ccc(-c3cn(C)nn3)c2Oc2ccc(F)c(F)c2)N1C(=O)C1CC1 [I-319, (S)-cyclopropyl(5-(3,4-difluorophenoxy)-2-methyl-6-(1-methyl-1H-1,2,3-triazol-4-yl)-3,4-dihydroquinolin-1(2H)-yl)methanone] | 1 to 10 µM | < 0.5 µM
C[C@H]1CCc2c(ccc(-c3cn(C)nn3)c2Oc2ccccc2F)N1C(=O)C1CC1 [I-320, (S)-cyclopropyl(5-(2-fluorophenoxy)-2-methyl-6-(1-methyl-1H-1,2,3-triazol-4-yl)-3,4-dihydroquinolin-1(2H)-yl)methanone] | 0.1 to 1 µM | < 0.5 µM
C[C@H]1CCc2c(Oc3ccccc3)c(-c3cn(C)nn3)cc(F)c2N1C(=O)C1CC1 [I-321, (S)-cyclopropyl(8-fluoro-2-methyl-6-(1-methyl-1H-1,2,3-triazol-4-yl)-5-phenoxy-3,4-dihydroquinolin-1(2H)-yl)methanone] | 0.1 to 1 µM | < 0.5 µM
COC(=O)N1c2c(F)cc(-c3cn(C)nn3)c(Oc3ccccc3)c2CC[C@@H]1C [I-322, (S)-methyl 8-fluoro-2-methyl-6-(1-methyl-1H-1,2,3-triazol-4-yl)-5-phenoxy-3,4-dihydroquinoline-1(2H)-carboxylate] | 0.1 to 1 µM | < 0.5 µM
CC(=O)N1c2c(F)cc(-c3cn(C)nn3)c(Oc3ccccc3)c2CC[C@@H]1C [I-323, (S)-1-(8-fluoro-2-methyl-6-(1-methyl-1H-1,2,3-triazol-4-yl)-5-phenoxy-3,4-dihydroquinolin-1(2H)-yl)ethanone] | 1 to 10 µM | < 0.5 µM
C[C@H]1CCc2c(ccc(-n3cccn3)c2OC2CCC2)N1C(=O)C1CC1 [I-324, (S)-(5-cyclobutoxy-2-methyl-6-(1H-pyrazol-1-yl)-3,4-dihydroquinolin-1(2H)-yl)(cyclopropyl)methanone] | ≥ 10 µM | > 1 µM
C[C@H]1CCc2c(ccc(-n3cccn3)c2Oc2ccccc2)N1C(=O)C1CC1 [I-325, (S)-cyclopropyl(2-methyl-5-phenoxy-6-(1H-pyrazol-1-yl)-3,4-dihydroquinolin-1(2H)-yl)methanone] | ≥ 10 µM | > 1 µM
C[C@H]1CCc2c(ccc(-n3nccn3)c2OC2CCC2)N1C(=O)C1CC1 [I-326, (S)-(5-cyclobutoxy-2-methyl-6-(2H-1,2,3-triazol-2-yl)-3,4-dihydroquinolin-1(2H)-yl)(cyclopropyl)methanone] | ≥ 10 µM | > 1 µM
C[C@H]1CCc2c(ccc(-n3nccn3)c2Oc2ccccc2)N1C(=O)C1CC1 [I-327, (S)-cyclopropyl(2-methyl-5-phenoxy-6-(2H-1,2,3-triazol-2-yl)-3,4-dihydroquinolin-1(2H)-yl)methanone] | ≥ 10 µM | > 1 µM
C[C@H]1CCc2c(ccc(-c3ncc(C4CCNCC4)[nH]3)c2OC2CCC2)N1C(=O)C1CC1 [I-328, (S)-(5-cyclobutoxy-2-methyl-6-(5-(piperidin-4-yl)-1H-imidazol-2-yl)-3,4-dihydroquinolin-1(2H)-yl)(cyclopropyl)methanone] | 1 to 10 µM | < 0.5 µM
C[C@H]1CCc2c(ccc(-c3ncc(C4CCNCC4)[nH]3)c2Oc2ccccc2)N1C(=O)C1CC1 [I-329, (S)-cyclopropyl(2-methyl-5-phenoxy-6-(5-(piperidin-4-yl)-1H-imidazol-2-yl)-3,4-dihydroquinolin-1(2H)-yl)methanone] | 0.1 to 1 µM | < 0.5 µM
Cc1cc(Oc2c(-c3cnn(C4CCNCC4)c3)ccc3c2CC[C@H](C)N3C(=O)C2CC2)cc(C)n1 [I-330, (S)-cyclopropyl(5-(2,6-dimethylpyridin-4-yloxy)-2-methyl-6-(1-(piperidin-4-yl)-1H-pyrazol-4-yl)-3,4-dihydroquinolin-1(2H)-yl)methanone] | 0.1 to 1 µM | < 0.5 µM
Cc1cccc(Oc2c(-c3cnn(C4CCNCC4)c3)ccc3c2CC[C@H](C)N3C(=O)C2CC2)n1 [I-331, (S)-cyclopropyl(2-methyl-5-(6-methylpyridin-2-yloxy)-6-(1-(piperidin-4-yl)-1H-pyrazol-4-yl)-3,4-dihydroquinolin-1(2H)-yl)methanone] | 0.1 to 1 µM | < 0.5 µM
Cc1ccc(Oc2c(-c3cnn(C4CCNCC4)c3)ccc3c2CC[C@H](C)N3C(=O)C2CC2)c(C)n1 [I-332, (S)-cyclopropyl(5-(2,6-dimethylpyridin-3-yloxy)-2-methyl-6-(1-(piperidin-4-yl)-1H-pyrazol-4-yl)-3,4-dihydroquinolin-1(2H)-yl)methanone] | 0.1 to 1 µM | < 0.5 µM
COC(=O)N1c2ccc(-c3cnn(C4CCNCC4)c3)c(Oc3cccc(C)n3)c2CC[C@@H]1C [I-333, (S)-methyl 2-methyl-5-(6-methylpyridin-2-yloxy)-6-(1-(piperidin-4-yl)-1H-pyrazol-4-yl)-3,4-dihydroquinoline-1(2H)-carboxylate] | 0.1 to 1 µM | < 0.5 µM
CC(=O)N1c2ccc(-c3cnn(C4CCNCC4)c3)c(Oc3cccc(C)n3)c2CC[C@@H]1C [I-334, (S)-1-(2-methyl-5-(6-methylpyridin-2-yloxy)-6-(1-(piperidin-4-yl)-1H-pyrazol-4-yl)-3,4-dihydroquinolin-1 (2H)-yl)ethanone] | 1 to 10 µM | < 0.5 µM
COC(=O)N1c2ccc(-c3cnn(C4CCNCC4)c3)c(Oc3cccc(OC)n3)c2CC[C@@H]1C [I-335, (S)-methyl 5-(6-methoxypyridin-2-yloxy)-2-methyl-6-(1-(piperidin-4-yl)-1H-pyrazol-4-yl)-3,4-dihydroquinoline-1(2H)-carboxylate] | 0.1 to 1 µM | < 0.5 µM
COc1cccc(Oc2c(-c3cnn(C4CCNCC4)c3)ccc3c2CC[C@H](C)N3C(C)=O)n1 [I-336, (S)-1-(5-(6-methoxypyridin-2-yloxy)-2-methyl-6-(1-(piperidin-4-yl)-1H-pyrazol-4-yl)-3,4-dihydroquinolin-1 (2H)-yl)ethanone] | 0.1 to 1 µM | < 0.5 µM
C[C@H]1CCc2c(ccc(-n3cc(N4CCNCC4)cn3)c2Oc2ccccc2)N1C(=O)C1CC1 [I-337, (S)-cyclopropyl(2-methyl-5-phenoxy-6-(4-(piperazin-1-yl)-1H-pyrazol-1-yl)-3,4-dihydroquinolin-1(2H)-yl)methanone] | 1 to 10 µM | > 1 µM
C[C@H]1CCc2c(ccc(-n3cc(N4CCOCC4)cn3)c2Oc2ccccc2)N1C(=O)C1CC1 [I-338, (S)-cyclopropyl(2-methyl-6-(4-morpholino-1H-pyrazol-1-yl)-5-phenoxy-3,4-dihydroquinolin-1(2H)-yl)methanone] | 1 to 10 µM | 0.5 to 1 µM
COC(=O)N1c2ccc(-n3cc(N4CCOCC4)cn3)c(Oc3ccccc3)c2CC[C@@H]1C [I-339, (S)-methyl 2-methyl-6-(4-morpholino-1H-pyrazol-1-yl)-5-phenoxy-3,4-dihydroquinoline-1(2H)-carboxylate] | 1 to 10 µM | > 1 µM
COC(=O)N1c2ccc(-n3cc(N4CCNCC4)cn3)c(Oc3ccccc3)c2CC[C@@H]1C [I-340, (S)-methyl 2-methyl-5-phenoxy-6-(4-(piperazin-1-yl)-1H-pyrazol-1-yl)-3,4-dihydroquinoline-1(2H)-carboxylate] | 1 to 10 µM | > 1 µM
COC(=O)N1c2ccc(-c3cnn(C4CCS(=O)(=O)CC4)c3)c(OC3CCC3)c2CC[C@@H]1C [I-341, methyl (2S)-5-cyclobutoxy-6-[1-(1,1-dioxo-1λ^6-thian-4-yl)-1H-pyrazol-4-yl]-2-methyl-1,2,3,4-tetrahydroquinoline-1-carboxylate] | 0.1 to 1 µM | 0.5 to 1 µM
C[C@H]1CCc2c(ccc(C#N)c2Oc2ccccc2)N1C(=O)C1CC1 [I-343, (S)-1-(cyclopropanecarbonyl)-2-methyl-5-phenoxy-1,2,3,4-tetrahydroquinoline-6-carbonitrile] | 0.1 to 1 µM and ≥ 10 µM | < 0.5 µM
COC(=O)N1c2ccc(C#N)c(Oc3ccccc3)c2CC[C@@H]1C [I-344, (S)-methyl 6-cyano-2-methyl-5-phenoxy-3,4-dihydroquinoline-1(2H)-carboxylate] | ≥ 10 µM | > 1 µM
